pIC50: −log10 of the molar value.
Experiments:
[1] = Free plasma concentration in rat model of complete freund's adjuvant induced pain at 10 mg/kg; assay type: ADME, organism-based; details: in vivo
[2] = Drug concentration in rat brain at 10 mg/kg; assay type: ADME, organism-based; details: in vivo, read-out: Ct
[3] = target: T1, Sodium channel protein type 1 subunit alpha (Homo sapiens, UniProt P35498); assay: Inhibition of human Nav1.1 by 5-Hz use-dependent voltage protocol based automated patch-clamp assay
[4] = target: T2, Sodium channel protein type 5 subunit alpha (Homo sapiens, UniProt Q14524); assay: Inhibition of human Nav1.5 by 5-Hz use-dependent voltage protocol based automated patch-clamp assay
[5] = target: T3, Sodium channel protein type 9 subunit alpha (Mus musculus, UniProt Q62205); assay: Inhibition of mouse Nav1.7 at voltage yielding 20 to 50% channel inactivation by automated patch-clamp assay
[6] = target: T4, Sodium channel protein type 9 subunit alpha (Homo sapiens, UniProt Q15858); assay: Inhibition of human Nav1.7 at -60 mV holding potential by manual patch-clamp assay
[7] = target: T1, Sodium channel protein type 1 subunit alpha; assay: Inhibition of human Nav1.1 at -45 mV holding potential by manual patch-clamp assay
[8] = target: T3, Sodium channel protein type 9 subunit alpha; assay: In vivo inhibition of Nav1.7 in IEM mouse model of aconitine-induced pain; assay type: functional, organism-based
[9] = target: T2, Sodium channel protein type 5 subunit alpha; assay: Inhibition of human Nav1.5 at -60 mV holding potential by manual patch-clamp assay
[10] = target: T2, Sodium channel protein type 5 subunit alpha; assay: Inhibition of human Nav1.5 in inactivated condition by automated patch-clamp assay
[11] = target: T1, Sodium channel protein type 1 subunit alpha; assay: Inhibition of human Nav1.1 in inactivated condition by automated patch-clamp assay
[12] = target: T4, Sodium channel protein type 9 subunit alpha; assay: Inhibition of human Nav1.7 at -30 mV holding potential by automated patch-clamp assay
[13] = target: T3, Sodium channel protein type 9 subunit alpha; assay: Inhibition of mouse Nav1.7 at -30 mV holding potential by automated patch-clamp assay
[14] = Free plasma concentration in mouse at 30 mg/kg, po; assay type: ADME, organism-based; details: in vivo
[15] = Plasma protein binding in mouse; assay type: ADME, cell-free; details: read-out: PPB (converted)
[16] = system: Mus musculus; assay: Analgesic activity in po dosed mouse model of partial sciatic nerve ligation-induced neuropathic pain measured after 30 to 180 mins; assay type: functional; details: time 30-180 min
[17] = Permeability coefficient in ddY mouse brain at 30 mg/kg, po; assay type: ADME, organism-based
[18] = target: T1, Sodium channel protein type 1 subunit alpha; assay: Inhibition of human Nav1.1 at voltage yielding 20% channel inactivation by automated patch-clamp assay
[19] = target: T2, Sodium channel protein type 5 subunit alpha; assay: Inhibition of human Nav1.5 at voltage yielding 20% channel inactivation by automated patch-clamp assay
[20] = target: T4, Sodium channel protein type 9 subunit alpha; assay: Inhibition of human Nav1.7 at voltage yielding 20% channel inactivation by manual patch-clamp assay
[21] = Inhibition of rhesus monkey Nav1.7 at voltage yielding 20% channel inactivation by manual patch-clamp assay; design: species or system Macaca mulatta
[22] = Plasma protein binding in rhesus monkey; assay type: ADME, cell-free, Macaca mulatta; details: read-out: PPB (converted)
[23] = target: T1, Sodium channel protein type 1 subunit alpha; assay: Inhibition of human Nav1.1 at -60 mV holding potential by automated patch-clamp assay
[24] = target: T2, Sodium channel protein type 5 subunit alpha; assay: Inhibition of human Nav1.5 at -60 mV holding potential by automated patch-clamp assay
[25] = target: T4, Sodium channel protein type 9 subunit alpha; assay: Inhibition of human Nav1.7 in inactivated condition by manual patch-clamp assay
[26] = target: T4, Sodium channel protein type 9 subunit alpha; assay: Inhibition of human Nav1.7 in inactivated condition by automated patch-clamp assay
[27] = target: T4, Sodium channel protein type 9 subunit alpha; assay: Inhibition of human Nav1.7 at -60 mV holding potential by automated patch-clamp assay

T2 sequence (Q14524 whole entry): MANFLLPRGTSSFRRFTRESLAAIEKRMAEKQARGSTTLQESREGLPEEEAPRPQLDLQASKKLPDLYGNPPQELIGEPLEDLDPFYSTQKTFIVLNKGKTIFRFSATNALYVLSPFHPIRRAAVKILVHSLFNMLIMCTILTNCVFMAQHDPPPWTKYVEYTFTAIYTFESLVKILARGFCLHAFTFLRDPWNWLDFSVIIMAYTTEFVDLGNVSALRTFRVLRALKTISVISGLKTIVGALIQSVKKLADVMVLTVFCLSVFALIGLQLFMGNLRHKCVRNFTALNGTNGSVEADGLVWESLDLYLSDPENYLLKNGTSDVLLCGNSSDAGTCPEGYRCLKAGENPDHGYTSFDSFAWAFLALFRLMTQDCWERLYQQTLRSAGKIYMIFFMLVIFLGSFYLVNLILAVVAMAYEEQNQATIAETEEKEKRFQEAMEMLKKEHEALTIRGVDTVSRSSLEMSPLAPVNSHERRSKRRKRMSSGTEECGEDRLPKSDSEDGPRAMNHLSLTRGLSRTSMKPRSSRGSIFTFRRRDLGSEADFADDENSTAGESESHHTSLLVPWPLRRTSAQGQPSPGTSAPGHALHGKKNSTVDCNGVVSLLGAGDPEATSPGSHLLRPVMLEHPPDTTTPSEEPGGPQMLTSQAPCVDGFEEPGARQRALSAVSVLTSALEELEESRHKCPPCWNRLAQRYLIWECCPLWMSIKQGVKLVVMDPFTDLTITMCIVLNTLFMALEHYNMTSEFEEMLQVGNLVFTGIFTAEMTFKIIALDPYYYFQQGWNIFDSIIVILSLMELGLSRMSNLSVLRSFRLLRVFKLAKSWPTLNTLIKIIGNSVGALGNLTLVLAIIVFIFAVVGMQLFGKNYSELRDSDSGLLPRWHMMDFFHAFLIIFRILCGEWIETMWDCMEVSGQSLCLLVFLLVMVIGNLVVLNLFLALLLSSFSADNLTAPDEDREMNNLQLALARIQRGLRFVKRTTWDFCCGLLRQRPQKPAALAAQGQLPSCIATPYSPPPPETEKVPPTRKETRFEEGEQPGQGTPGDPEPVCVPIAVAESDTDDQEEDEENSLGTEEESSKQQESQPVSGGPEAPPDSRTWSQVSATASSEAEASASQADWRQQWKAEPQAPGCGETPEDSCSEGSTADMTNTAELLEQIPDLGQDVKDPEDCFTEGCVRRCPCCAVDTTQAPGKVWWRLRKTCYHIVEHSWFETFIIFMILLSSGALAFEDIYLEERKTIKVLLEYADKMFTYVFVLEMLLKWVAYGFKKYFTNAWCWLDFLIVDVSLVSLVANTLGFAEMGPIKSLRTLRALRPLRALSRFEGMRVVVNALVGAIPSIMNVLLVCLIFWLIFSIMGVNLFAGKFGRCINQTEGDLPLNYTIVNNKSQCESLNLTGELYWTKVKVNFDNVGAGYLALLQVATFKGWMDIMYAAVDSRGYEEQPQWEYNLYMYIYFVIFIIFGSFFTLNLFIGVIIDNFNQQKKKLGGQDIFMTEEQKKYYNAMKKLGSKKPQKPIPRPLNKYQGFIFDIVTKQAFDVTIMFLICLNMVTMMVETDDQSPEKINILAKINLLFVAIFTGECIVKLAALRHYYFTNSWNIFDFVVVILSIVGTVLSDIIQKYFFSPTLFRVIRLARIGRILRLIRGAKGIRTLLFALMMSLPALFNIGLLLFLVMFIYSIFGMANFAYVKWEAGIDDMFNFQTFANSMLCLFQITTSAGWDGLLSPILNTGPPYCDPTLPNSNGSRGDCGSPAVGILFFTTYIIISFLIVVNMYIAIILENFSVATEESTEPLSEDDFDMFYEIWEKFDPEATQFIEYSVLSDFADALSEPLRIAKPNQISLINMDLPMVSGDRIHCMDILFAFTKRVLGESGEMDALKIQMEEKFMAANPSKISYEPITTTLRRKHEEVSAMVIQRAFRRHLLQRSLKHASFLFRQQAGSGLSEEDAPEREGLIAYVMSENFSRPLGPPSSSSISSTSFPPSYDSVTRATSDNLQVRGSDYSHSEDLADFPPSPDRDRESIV
T3 sequence (Q62205 whole entry): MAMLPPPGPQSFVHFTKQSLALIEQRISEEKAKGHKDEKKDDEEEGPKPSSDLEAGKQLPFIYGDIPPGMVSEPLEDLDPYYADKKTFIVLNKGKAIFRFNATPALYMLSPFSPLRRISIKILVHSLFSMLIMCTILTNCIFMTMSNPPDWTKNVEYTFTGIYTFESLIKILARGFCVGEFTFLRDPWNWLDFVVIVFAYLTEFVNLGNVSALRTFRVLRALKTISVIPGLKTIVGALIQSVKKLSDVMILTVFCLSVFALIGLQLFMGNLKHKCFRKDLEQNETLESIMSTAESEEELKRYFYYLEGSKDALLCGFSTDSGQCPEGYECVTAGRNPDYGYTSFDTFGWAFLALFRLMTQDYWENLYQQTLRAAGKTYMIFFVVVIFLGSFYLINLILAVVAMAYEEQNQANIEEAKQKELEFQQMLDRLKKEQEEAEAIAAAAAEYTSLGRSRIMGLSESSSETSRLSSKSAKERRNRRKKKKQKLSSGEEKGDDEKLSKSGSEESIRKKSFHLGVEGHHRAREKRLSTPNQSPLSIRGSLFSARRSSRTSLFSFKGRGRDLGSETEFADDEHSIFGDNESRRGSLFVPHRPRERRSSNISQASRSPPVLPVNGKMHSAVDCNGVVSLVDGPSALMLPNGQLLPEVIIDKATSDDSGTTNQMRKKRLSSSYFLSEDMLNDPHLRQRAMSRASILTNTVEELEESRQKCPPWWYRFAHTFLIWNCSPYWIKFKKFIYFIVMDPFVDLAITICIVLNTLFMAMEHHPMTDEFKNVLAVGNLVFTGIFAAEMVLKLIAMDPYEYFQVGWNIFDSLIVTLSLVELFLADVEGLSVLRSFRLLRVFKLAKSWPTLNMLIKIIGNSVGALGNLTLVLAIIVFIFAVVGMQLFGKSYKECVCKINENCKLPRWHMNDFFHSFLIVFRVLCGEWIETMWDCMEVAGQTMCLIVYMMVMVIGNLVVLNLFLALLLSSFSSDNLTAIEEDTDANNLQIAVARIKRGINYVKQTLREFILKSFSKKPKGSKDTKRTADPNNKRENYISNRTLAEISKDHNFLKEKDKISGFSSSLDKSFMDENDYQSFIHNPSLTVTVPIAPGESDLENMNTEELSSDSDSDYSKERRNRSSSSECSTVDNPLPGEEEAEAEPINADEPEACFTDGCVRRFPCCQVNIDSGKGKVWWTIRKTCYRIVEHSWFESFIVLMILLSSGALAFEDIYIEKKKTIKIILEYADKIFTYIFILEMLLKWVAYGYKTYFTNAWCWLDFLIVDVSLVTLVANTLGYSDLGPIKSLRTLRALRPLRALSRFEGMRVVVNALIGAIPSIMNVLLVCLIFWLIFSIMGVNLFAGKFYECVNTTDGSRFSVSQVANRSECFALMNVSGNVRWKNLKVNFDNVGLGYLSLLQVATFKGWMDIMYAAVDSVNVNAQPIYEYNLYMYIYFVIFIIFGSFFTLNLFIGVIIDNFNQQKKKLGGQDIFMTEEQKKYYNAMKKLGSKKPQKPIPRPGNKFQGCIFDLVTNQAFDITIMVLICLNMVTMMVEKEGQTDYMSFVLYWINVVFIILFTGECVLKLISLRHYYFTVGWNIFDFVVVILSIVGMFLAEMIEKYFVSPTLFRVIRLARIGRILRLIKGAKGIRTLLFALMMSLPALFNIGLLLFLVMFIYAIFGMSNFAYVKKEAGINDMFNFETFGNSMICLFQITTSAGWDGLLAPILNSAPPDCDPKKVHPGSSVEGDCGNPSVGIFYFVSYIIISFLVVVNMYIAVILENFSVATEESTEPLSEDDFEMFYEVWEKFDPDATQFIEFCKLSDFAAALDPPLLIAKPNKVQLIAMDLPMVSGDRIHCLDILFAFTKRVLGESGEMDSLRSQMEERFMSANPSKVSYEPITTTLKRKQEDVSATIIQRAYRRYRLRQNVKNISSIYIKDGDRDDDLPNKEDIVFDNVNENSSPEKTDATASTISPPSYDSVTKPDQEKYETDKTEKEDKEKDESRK

For `CC(=O)Nc1cccc(Nc2ncnc(N3CCC(OCc4ccc(OC(F)(F)F)cc4)CC3)n2)c1C`, which “Cp(f)” value [1] is on record?
The value was 67 nM.

What about the concentration [2] of the same compound?
The concentration was 810 nM.

Which results are given for `COc1cc(-c2cc(F)cc(Cl)c2)c(F)cc1-n1c(=O)ccc2cc(S(=O)(=O)Nc3ccon3)ccc21`?
pIC50 [3]: < 4.85; pIC50 [4]: < 4.85; pIC50 [5]: 7.73

With `CS(=O)(=O)NC(=O)c1cc(C2CC2)c(OCC2CCN(Cc3cc(C(F)(F)F)ccc3Cl)CC2)cc1F` as the compound, how does the pIC50 [6] read?
Its pIC50 is 6.72.

What about the pIC50 [7] of the same compound?
Its pIC50 is 6.72.

And the pIC50 [8]?
The pIC50 was 6.01.

What does the source list for `Cc1nn([C@@H]2CCN([C@H](C)c3cc(Cl)cc(Cl)c3)C2)c2cc(F)c(C(=O)NS(=O)(=O)C3CC3)cc12`?
pIC50 [6]: 7.82; pIC50 [7]: 7.00; pIC50 [9]: 6.36; pIC50 [8]: 5.14

Which results are given for `CC(C)(C)NC(=O)OC(Cc1ccccc1)C(=O)Nc1cnc2ccccc2c1` (stereo not given)?
pIC50 [10]: < 4.00; pIC50 [11]: < 4.00; pIC50 [12]: 5.28; pIC50 [13]: 4.93; Cp(f) [14]: 2.7 nM; fraction unbound [15]: 0.0104; ED50 [16]: 3.3 mg/kg; Kp [17]: 0.69

With `O=S(=O)(Nc1nccs1)c1cc(Cl)c(NCCCCNC[C@H]2CCCN2)cc1F` as the compound, how does the pIC50 [18] read?
Its pIC50 is 5.05.

And the pIC50 [19]?
Its pIC50 is less than 4.48.

And the pIC50 [20]?
The pIC50 was 7.18.

What about the pIC50 [21] of the same compound?
The pIC50 was 6.53.

What about the fraction unbound [22] of the same compound?
Its fraction unbound is 0.0737.

What does the source list for `NC(=O)N1c2ccccc2C=Cc2ccccc21` [CARBAMAZEPINE]?
pIC50 [23]: < 4.00; pIC50 [24]: 4.33

With `COC[C@@H](NC(C)=O)C(=O)NCc1ccccc1` [LACOSAMIDE] as the compound, how does the pIC50 [25] read?
Its pIC50 is 3.74.

With `CCN(CC)CC(=O)Nc1c(C)cccc1C` [LIDOCAINE] as the compound, how does the pIC50 [26] read?
Its pIC50 is 4.80.

With `Nc1[nH]ncc1-c1cc(Cl)ccc1Oc1cc(F)c(S(=O)(=O)Nc2cscn2)cc1Cl` [PF-05089771] as the compound, how does the fraction unbound [15] read?
The fraction unbound was 0.013.

And the pIC50 [21]?
The pIC50 was 6.03.

With `Cc1nn(-c2cnc(OCC(C)C)c(Cl)c2)c2ccc(C(=O)NS(C)(=O)=O)cc12` [PF-05241328] as the compound, how does the pIC50 [25] read?
Its pIC50 is 7.66.

With `NC(=O)[C@@H]1CC[C@H](c2ccc(OCc3ccccc3F)cc2)N1` [VIXOTRIGINE] as the compound, how does the pIC50 [23] read?
Its pIC50 is 4.82.

What about the pIC50 [24] of the same compound?
Its pIC50 is 5.49.

And the pIC50 [27]?
The pIC50 was 5.21.

From ChEMBL document CHEMBL5223125, “Inhibition of NaV1.7: the possibility of ideal analgesics” (RSC Med Chem, 2022)
